Results as given in patent publication US20160287726A1, “CATIONIC CONTRAST AGENTS AND METHODS OF USING THE SAME” (The Trustees of the University of Pennsylvania, priority 2015, published 2016).

Columns and labels:
[1] = Demetallation assay in 1M HCl; assay type: physicochemical; details: 2.5 mM, 37° C.
Experimental: Since transmetallation was not observed in serum supplemented with ZnCl2, the stability of the various Gd complexes were further evaluated by monitoring demetallation in a highly acidic, non-physiologic solution (1M HCl). Even under these harsh conditions, Gd remained complexed with Compound 6 for at least 24 hours (FIG. 3B). […] Since a measurement of the T1 relaxation time could not be acquired at t=0 for this assay, the relaxation ratio could not be calculated. Instead, demetallation was monitored strictly by changes in the T1 relaxation time. In instances of demetallation, the T1 relaxation time moved towards that of free Gd.
Demetallation Assay A 300 μL solution of 2.5 mM Gd-compound was incubated at 37° C. in 1M HCl and the longitudinal relaxation times were acquired at appropriate time points. The relaxation time was then plotted against time.

[2] = Transmetallation assay with ZnCl2 in fetal bovine serum; assay type: physicochemical; details: 2.5 mM complex, 2.5 mM ZnCl2, fetal bovine serum, pH 7.4, 37° C., over 72 hours
Experimental: To directly compare the stability of Complex A to Gd-DTPA (Magnevist®) and Gd-DOTA (also known as gadoteric acid), a transmetallation assay using equimolar concentrations of ZnCl2 was performed in fetal bovine serum. Transmetallation was monitored as a function of time by calculating the relaxation ratio, R1(t)/R1(0), where R1(t) is the longitudinal Relaxivity at time t and R1(0) is the longitudinal Relaxivity in the absence of ZnCl2 (i.e. time 0).
Transmetallation of Gd^3+ ion by Zinc^2+ ion was performed in fetal bovine serum. The solution contained 4 mL of 2.5 mM Gd-complex and 2.5 mM ZnCl2 at pH 7.4. The mixture was stirred at 37° C. throughout the experiment while 300 μL aliquot was taken up at the appropriate time for measurement of the longitudinal relaxation time. The water proton relaxation times were measured using a Bruker mq60 tabletop MR relaxometer operating at 1.41T. Ratio of reverse relaxation time at each time point (R1(t)) and relaxation time at time zero (R1(0)) was plotted against time.

[3] = tested on: GAG-rich cartilage (articular cartilage microparticles from juvenile bovine femurs); assay: Electrostatic interaction with cartilage microparticles (T1 of supernatant); assay type: binding; details: normalized to average T1 of respective control
Experimental: To assess whether Gd-DOTA-Am4 interacts electrostatically with GAG-rich cartilage, articular cartilage from juvenile bovine femurs was ground into microparticles. These microparticles were then mixed and incubated with Gd-DOTA, Gd-DTPA, or Gd-DOTA-Am4. The microparticles were then pelleted and the T1 relaxation time of the supernatant was measured. Measurements were compared to analogous control Gd complexes that were not incubated with cartilage microparticles (FIG. 5). All samples were normalized to the average T1 relaxation time of their respective control.

[4] = Relaxivity measurements (longitudinal relaxivity r1); assay type: physicochemical; details: Bruker mq60 MR relaxometer, 1.41 T (60 MHz), saline pH 7.4
Experimental: Compound2 was prepared by bromination of methyl acrylate using bromine in chloroform at room temperature, while compound 3 was prepared by slow addition of diethylamine into compound 2 in ether at 0° C. The methyl and ethyl protecting groups were efficiently removed with a methanol:NaOH (0.5 M) solvent cocktail (40:60) for 48 h. The solution was neutralized with a 2 M HCl solution and dried. The residue was redissolved in pure methanol, and the precipitate that formed was filtered and the solvent dried in vacuuo to yield compound 6. […] In comparison, the longitudinal relaxivity of Magnevist® was measured to be 3.9 mM^−1s^−1 (FIG. 2B).
Longitudinal relaxation times (T1) were measured in saline at pH 7.4 using a Bruker mq60 tabletop MR relaxometer operating at 1.41 T. The longitudinal relaxivity (r1) of the complex was calculated by plotting the reciprocal of the T1 relaxation time versus the gadolinium concentration.

[5] = tested on: adult bovine menisci explants with defect; assay: Contrast-enhanced T1-weighted MR imaging of meniscus explants with defect; details: 2 mM, pH 7.4, ~30 min bath; for qualitative contrast / signal intensity within soft tissue defect: T1-weighted images, 4.7 T
Experimental: To evaluate the efficacy of Complex A in highlighting soft tissue tears in comparison to Gd-DTPA, explants (8 mm in diameter) were obtained from adult bovine menisci. Well-defined defects were then introduced by using a punch to create a 4 mm internal core, which was left in place. Tissue explant blocks (n=9; 3 per group) were placed in a 48-well microplate and bathed in 2 mM Gd-DTPA, Complex A, or Saline (pH 7.4) for ˜30 min. The pH and concentration of Gd^+3 was kept constant throughout the experiment. T1-weighted images were then acquired in the axial plane (FIGS. 6A and 7). […] In the saline samples, the defects were extremely difficult to identify. To acquire a more quantitative comparison between the three groups, regions of interest (ROI) were drawn around the lateral defects and, following background subtraction (FIGS. 6B-D), the total signal intensity (area under curve) within the ROI was quantified and normalized to the length of the tear (FIG. 6E). The Wilcoxon signed-rank test was then used to compare contrast enhancement for the various contrast agents.
Adult bovine stifle joints were purchased from a commercial vendor (Animal Technologies, Tyler, Tex.), dissected in a sterile field, and the menisci removed. Biopsy punches (Miltex, York, Pa.) were used to produce 8 mm diameter full thickness samples in the axial plane. Well-defined defects were then introduced by using a 4 mm punch to create an internal core, which was left in place. […]
A region of interest (ROI) was determined for each MR image slice (n=6 per contrast agent, i.e. 2 slices per sample). […] The ROI height was determined for each slice individually, such that it could span the sample from top to bottom and exclude media and unrelated bright areas within the cartilage (e.g., cavities near the liquid-cartilage interface). […]
ROIs were partitioned into one-pixel tall lines spanning the entire width. […] All of the integrations in an ROI were then averaged to quantify that ROI's average signal intensity. […]

[6] = tested on: bovine meniscal fibrochondrocytes (MFCs); assay: Cell-based safety assay on meniscal fibrochondrocyte monolayers; details: over 24 hours, basal media, compared with Saline
Experimental: (§1) The safety profile of Gd-DOTA-Am4 was assessed via both cell- and tissue-based assays. […] Similarly, after intra-articular injection of Saline, Gd-DTPA, or Gd-DOTA-Am4 into the joint space of an intact bovine femorotibial explant, the area fractions of live and dead cells in the cartilage and meniscus were equivalent after 3 hours (p>0.05) (FIG. 9).

[7] = tested on: cartilage and meniscus of an intact bovine femorotibial explant; assay: Tissue-based safety assay, intra-articular injection into femorotibial explant; details: after 3 hours, compared with Saline, p>0.05
Experimental: as §1

Q: For `NCC(C(=O)O)N1CCN(C(CN)C(=O)O)CCN(C(CN)C(=O)O)CCN(C(CN)C(=O)O)CC1` (stereo not drawn) [Compound 6, 1,4,7,10-tetraazacyclododecane-N,N′,N″,N′″-(α-(aminomethyl))-tetraacetic acid], which “time Gd remained complexed (demetallation)” value ([1]; monitored by T1 relaxation time) is on record?
A: Its value is “at least 24 hours”.

Q: For `O=C([O-])CN1CCN(CC(=O)[O-])CCN(CC(=O)O)CCN(CC(=O)[O-])CC1.[Gd+3]` [Gd-DOTA, 1,4,7,10-tetraazacyclododecane-1,4,7,10-tetraacetic acid (DOTA) gadolinium complex], which “transmetallation (relaxation ratio R1(t)/R1(0))” value [2] is on record?
A: The value was “No transmetallation was detected”.

Q: And the “demetallation (T1 relaxation time)” value [1]?
A: The value was “rapid demetallation”.

Q: What about the “T1 relaxation time of supernatant after incubation with cartilage microparticles vs control without microparticles” value [3] of the same molecule?
A: Its value is “no change in the relaxation time”.

Q: What does the source list for `O=C([O-])CN(CCN(CC(=O)[O-])CC(=O)O)CCN(CC(=O)[O-])CC(=O)O.[Gd+3]` [Gd-DTPA, Diethylenetriaminepentaacetic acid (DTPA) gadolinium complex]?
A: longitudinal relaxivity [4]: 3.9 mM⁻¹ s⁻¹; transmetallation (relaxation ratio R1(t)/R1(0)) [2]: rapidly increased; demetallation (T1 relaxation time) [1]: rapid demetallation; T1 relaxation time of supernatant after incubation with cartilage microparticles vs control without microparticles [3]: no change in the relaxation time; qualitative contrast / signal intensity within soft tissue defect [5]: much less contrast was observed within the defect at greater depths; qualitative contrast / signal intensity within soft tissue defect ([5]; listed as Magnevist®): less contrast was observed within the defect at greater depths; total signal intensity within ROI normalized to length of tear (contrast enhancement) ([5]; statistical comparison between groups): statistically significant improvement in contrast compared to saline; cell morphology, viability, and proliferation [6]: qualitatively similar between groups; area fractions of live and dead cells in the cartilage and meniscus [7]: equivalent
